Measurements reported in patent US20100063112A1, “POLYMORPH III OF 4-[4-(AMINO)-3-FLUOROPHENOXY]-N-METHYLPYRIDINE-2-CARBOXAMIDE” (BAYER SCHERING PHARMA AKTIENGESELLSCHAFT, priority 2006, published 2010).

Test: solubility in water and in organic solvents
Type: physicochemical

solubility in organic solvents (organic solvents): high
solubility in water (water): high
Compound: CNC(=O)c1cc(Oc2ccc(NC(=O)Nc3ccc(Cl)c(C(F)(F)F)c3)c(F)c2)ccn1 [polymorph III, 4-[4-({[4-chloro-3-(trifluoromethyl)phenyl]carbamoyl}amino)-3-fluorophenoxy]-N-methylpyridine-2-carboxamide in the polymorph III]
